Key:
Format in all cases: cell-based
[1] = test system: human hair follicle dermal papilla cells (hFDPC); test: Human follicle dermal papilla cell (hFDPC) proliferation, cell viability assay; conditions: hFDPCs supplemented with BIO, BMP-2 and FGFβ
Description: The ability of a compound or salt of the present disclosure to increase proliferation of human hair follicle dermal papilla cells (hFDPC) was tested using a cell viability assay, such as the Promega CellTiter-Glo® Luminescent Cell Viability Assay, MTT cell proliferation assay (ATCC® 30-1010K) or cell counting. […] In Table 8, A represents less than 20% of increased proliferation of hFDPCs, B represents 20-40%, and C represents larger than 40% of increased proliferation of hFDPCs. For this assay, hFDPCs were cultured on tissue culture-treated plastic and supplemented with 6-bromoindirubin-39-Oxime (BIO), recombinant bone morphogenetic protein-2 (BMP-2), and basic fibroblast growth factor (FGFβ), whose combination was previously found to preserve in situ dermal papilla gene signatures.

[2] = test system: TK.6 lymphoblasts; test: TK.6 micronucleus assay
Description: The safety/toxicology profiles of a compound or salt of the present disclosure was evaluated via a series of in vitro genotoxicity assays, including the SOS-chromotest to determine bacterial genotoxicity, and the TK.6 micronucleus assay to determine chromosomal damage and forward mutations. Standard reactive oxygen species (ROS) and caspase 3/7 assay were conducted to determine general cellular toxicity. Moreover, a series of sensitization tests were conducted to predict any potential skin sensitivity. These include the direct peptide reactivity assay to evaluate haptenization, the KeratinoSens reporter assay to determine potential sensitivity via the activation of a cytoprotective pathway, and an immunological assay using human immature monocyte-derived dendritic cells to evaluate any potential immunogenicity.
TK.6 lymphoblasts are a well-studied cell line commonly used for gene mutation analyses. They are heterozygous for the thymidine kinase gene (TK) and enable the detection of forward mutations and chromosomal damage, which manifests as micronuclei and are detectable via flow cytometry.
TK.6 cells were dosed with the exemplary compounds or a vehicle control (0.1% v/v DMSO) and cultured with or without S9 metabolic activation for 24 hr. […] Methyl methanesulfonate, a known genotoxic, alkylating agent was used as a positive control for micronuclei detection.
The micronucleus assay was also performed to determine if the compounds are genotoxic by evaluating the presence of micronuclei. […] I-17 elicited genotoxicity at >3.125 μg/mL.

[3] = test system: HepG2 cells; test: Caspase 3/7 activity in HepG2 cells; conditions: HepG2, >2-log concentration range
Description: (§1) Cells were treated with either the exemplary compounds or vehicle control containing correspondingly % v/v-matched amounts of DMSO spanning a >2-log concentration range. Data represents mean±s.d. and representative of at least 2 experimental replicates.
as §1, with “HepG2 cells are an immortalized liver cell line commonly used to study apoptosis induced by small molecules. Cells” for “Cells”

COc1cc([N+](=O)[O-])cc(/C=C2\C(=O)NC(=O)N(C)C2=O)c1O [Compound I-15, 2,4,6(1H,3H,5H)-Pyrimidinetrione, 5-[(2-hydroxy-3-methoxy-5-nitrophenyl)methylene]-1-methyl-]
Percent Increase Proliferation of hFDPCs (%) [1]: B (B represents 20-40%)

CCC(C)Cc1c(C)sc2[nH]c(SCc3cc(=O)oc4cc(O)ccc34)nc(=O)c12 (stereo not shown) [IV-4, Thieno[2,3-d]pyrimidin-4(1H)-one, 2-[[(7-hydroxy-2-oxo-2H-1-benzopyran-4-yl)methyl]thio]-6-methyl-5-(2-methylbutyl)-]
Percent Increase Proliferation of hFDPCs (%) [1]: A (A represents less than 20% of increased proliferation of hFDPCs)

C=CCOc1ccc(/C=C2/C(=O)NC(=O)N(CC=C)C2=O)cc1OC [Compound I-7, 2,4,6(1H,3H,5H)-Pyrimidinetrione, 5-[[3-methoxy-4-(2-propen-1-yloxy)phenyl]methylene]-1-(2-propen-1-yl)-]
Percent Increase Proliferation of hFDPCs (%) [1]: A (A represents less than 20% of increased proliferation of hFDPCs)

CC(C)(C)Nc1nnc(SCc2cc(=O)oc3cc(O)ccc23)s1 [IV-1, 2H-1-Benzopyran-2-one, 4-[[[5-[(1,1-dimethylethyl)amino]-1,3,4-thiadiazol-2-yl]thio]methyl]-7-hydroxy-]
Percent Increase Proliferation of hFDPCs (%) [1]: B (B represents 20-40%)

C=CCc1cc(C=C2C(=O)NC(=S)NC2=O)cc(OC)c1O [Compound I-9, 4,6(1H,5H)-Pyrimidinedione, dihydro-5-[[4-hydroxy-3-methoxy-5-(2-propen-1-yl)phenyl]methylene]-2-thioxo-]
Percent Increase Proliferation of hFDPCs (%) [1]: B (B represents 20-40%)

C=CCc1cc(/C=C2\C(=O)NC(=O)N(c3ccc(C)c(C)c3)C2=O)cc(OC)c1O [Compound I-4, 2,4,6(1H,3H,5H)-Pyrimidinetrione, 1-(3,4-dimethylphenyl)-5-[[4-hydroxy-3-methoxy-5-(2-propen-1-yl)phenyl]methylene]]
Percent Increase Proliferation of hFDPCs (%) [1]: A (A represents less than 20% of increased proliferation of hFDPCs)

CCCCN1CCc2cc(/C=C3\C(=O)NC(=O)N(C)C3=O)ccc21 [Compound I-12, 2,4,6(1H,3H,5H)-Pyrimidinetrione, 5-[(1-butyl-2,3-dihydro-1H-indol-5-yl)methylene]-1-methyl-]
Percent Increase Proliferation of hFDPCs (%) [1]: B (B represents 20-40%)

CN1C(=O)NC(=O)/C(=C/c2cnc(N(C)C)nc2)C1=O [Compound I-13, 2,4,6(1H,3H,5H)-Pyrimidinetrione, 5-[[2-(dimethylamino)-5-pyrimidinyl]methylene]-1-methyl-]
Percent Increase Proliferation of hFDPCs (%) [1]: A (A represents less than 20% of increased proliferation of hFDPCs)

C=CCc1cc(/C=C2\C(=O)NC(=O)N(c3cc(C)cc(C)c3)C2=O)cc(OC)c1O [Compound I-3, 2,4,6(1H,3H,5H)-Pyrimidinetrione, 1-(3,5-dimethylphenyl)-5-[[4-hydroxy-3-methoxy-5-(2-propen-1-yl)phenyl]methylene]-]
Percent Increase Proliferation of hFDPCs (%) [1]: A (A represents less than 20% of increased proliferation of hFDPCs)

C=CCc1cc(/C=C2\C(=O)NC(=O)N(C)C2=O)cc(OC)c1O [Compound I-16, 2,4,6(1H,3H,5H)-Pyrimidinetrione, 5-[[4-hydroxy-3-methoxy-5-(2-propen-1-yl)phenyl]methylene]-1-methyl-]
Percent Increase Proliferation of hFDPCs (%) [1]: A (A represents less than 20% of increased proliferation of hFDPCs)

C=CCc1cc(C=C2C(=O)NC(=S)NC2=O)cc(OCC)c1O [Compound I-8, 4,6(1H,5H)-Pyrimidinedione, 5-[[3-ethoxy-4-hydroxy-5-(2-propen-1-yl)phenyl]methylene]dihydro-2-thioxo-]
Percent Increase Proliferation of hFDPCs (%) [1]: B (B represents 20-40%)

COc1ccc(CCCc2nc3ccccc3[nH]2)cc1 [VII-14, 1H-Benzimidazole, 2-[3-(4-methoxyphenyl)propyl]-]
micronuclei formation / genotoxic effect in TK.6 cells [2]: do not promote any micronuclei formation
normalized caspase 3/7 activity [3]: did not exhibit any caspase activation

C=CCN1C(=O)NC(=O)/C(=C\c2ccc(OC)cc2OC)C1=O [Compound I-6, 2,4,6(1H,3H,5H)-Pyrimidinetrione, 5-[(2,4-dimethoxyphenyl)methylene]-1-(2-propen-1-yl)-]
Percent Increase Proliferation of hFDPCs (%) [1]: A (A represents less than 20% of increased proliferation of hFDPCs)

Cc1cccc(Cn2cnc(NC(=O)c3cc(-c4cccnc4)nc4ccc(C)cc34)n2)c1 [III-2, 4-Quinolinecarboxamide, 6-methyl-N-[1-[(3-methylphenyl)methyl]-1H-1,2,4-triazol-3-yl]-2-(3-pyridinyl)-]
Percent Increase Proliferation of hFDPCs (%) [1]: A (A represents less than 20% of increased proliferation of hFDPCs)

C=CCc1cc(/C=C2\C(=O)NC(=S)N(c3ccc(OC)cc3)C2=O)cc(OC)c1O [Compound I-17, 4,6(1H,5H)-Pyrimidinedione, dihydro-5-[[4-hydroxy-3-methoxy-5-(2-propen-1-yl)phenyl]methylene]-1-(4-methoxyphenyl)-2-thioxo-]
Percent Increase Proliferation of hFDPCs (%) [1]: C (C represents larger than 40% of increased proliferation of hFDPCs)
concentration eliciting genotoxicity in TK.6 micronuclei assay ([2]; 24 hr): > 3125 ng/mL
normalized caspase 3/7 activity [3]: significant caspase-3/7 activation at the highest concentration

C=CCc1cc(/C=C2\C(=O)NC(=O)N(c3ccc(C(C)C)cc3)C2=O)cc(OC)c1O [Compound I-1, 2,4,6(1H,3H,5H)-Pyrimidinetrione, 5-[[4-hydroxy-3-methoxy-5-(2-propen-1-yl)phenyl]methylene]-1-[4-(1-methylethyl)phenyl]-]
Percent Increase Proliferation of hFDPCs (%) [1]: A (A represents less than 20% of increased proliferation of hFDPCs)

C=CCc1cc(/C=C2\C(=O)NC(=O)N(c3cc(C)cc(C)c3)C2=O)cc(OCC)c1O [Compound I-2, 2,4,6(1H,3H,5H)-Pyrimidinetrione, 1-(3,5-dimethylphenyl)-5-[[3-ethoxy-4-hydroxy-5-(2-propen-1-yl)phenyl]methylene]-]
Percent Increase Proliferation of hFDPCs (%) [1]: B (B represents 20-40%)

O=C(O)CC1SC(NN=Cc2ccc(OS(=O)(=O)c3ccc([N+](=O)[O-])cc3)cc2)=NC1=O (stereo not shown) [VI-6, 5-Thiazoleacetic acid, 4,5-dihydro-2-[2-[[4-[[(4-nitrophenyl)sulfonyl]oxy]phenyl]methylene] hydrazinyl]-4-oxo-]
Percent Increase Proliferation of hFDPCs (%) [1]: A (A represents less than 20% of increased proliferation of hFDPCs)

COc1ccc(/C=C2\C(=O)NC(=O)N(C)C2=O)c(OC)c1 [Compound I-11, 2,4,6(1H,3H,5H)-Pyrimidinetrione, 5-[(2,4-dimethoxyphenyl)methylene]-1-methyl-, (5E)-]
Percent Increase Proliferation of hFDPCs (%) [1]: A (A represents less than 20% of increased proliferation of hFDPCs)

O=C1CNCc2[nH]c3ccccc3c2N1c1ccccc1 [VII-10, 1,4-Diazepino[6,5-b] indol-2(1H)-one, 3,4,5,6-tetrahydro-1-phenyl-]
Percent Increase Proliferation of hFDPCs (%) [1]: B (B represents 20-40%)

COc1cc(/C=C2\C(=O)NC(=O)N(Cc3ccccc3)C2=O)cc(OC)c1O [Compound I-5, 2,4,6(1H,3H,5H)-Pyrimidinetrione, 5-[(4-hydroxy-3,5-dimethoxyphenyl)methylene]-1-(phenylmethyl)-]
Percent Increase Proliferation of hFDPCs (%) [1]: B (B represents 20-40%)

CCOCCc1nnc(NC(=O)c2cc(-c3ccccc3)nc3ccccc23)s1 [III-4, 4-Quinolinecarboxamide, N-[5-(2-ethoxyethyl)-1,3,4-thiadiazol-2-yl]-2-phenyl-]
Percent Increase Proliferation of hFDPCs (%) [1]: B (B represents 20-40%)

C=CCc1cc(/C=C2\C(=O)NC(=S)N(C)C2=O)cc(OC)c1OCC [Compound I-10, 4,6(1H,5H)-Pyrimidinedione, 5-[[4-ethoxy-3-methoxy-5-(2-propen-1-yl)phenyl]methylene]dihydro-1-methyl-2-thioxo-]
Percent Increase Proliferation of hFDPCs (%) [1]: A (A represents less than 20% of increased proliferation of hFDPCs)

COc1ccc(CC(=O)Nc2sc3c(c2C(=O)Nc2cccc([N+](=O)[O-])c2)CCC(C)C3)cc1 (stereo not shown) [VII-22, Benzo[b]thiophene-3-carboxamide, 4,5,6,7-tetrahydro-2-[[2-(4-methoxyphenyl)acetyl]amino]-6-methyl-N-(3-nitrophenyl)-]
Percent Increase Proliferation of hFDPCs (%) [1]: A (A represents less than 20% of increased proliferation of hFDPCs)

CN1C(=O)NC(=O)/C(=C\c2cccc(OCC(=O)O)c2)C1=O [Compound I-14, Acetic acid, 2-[3-[(tetrahydro-1-methyl-2,4,6-trioxo-5(2H)-pyrimidinylidene)methyl]phenoxy]-]
Percent Increase Proliferation of hFDPCs (%) [1]: A (A represents less than 20% of increased proliferation of hFDPCs)
